{"source": "patent US12478658B2", "about": "“Enhanced efficacy of combination of gemcitabine and phosphatidylserine-targeted nanovesicles against pancreatic cancer” (University of Cincinnati, priority 2020, dated 2025)", "key": {"[1]": {"test_system": "cfPac-1 and MiaPaCa-2 cells", "assay": "Western blot cyclin B1/cyclin D1 ratio after GEM or SapC-DOPS", "type": "cell-based, human", "details": "cfPac-1 and MiaPaCa-2, western blot after treatment", "method": "Protein expression of cyclins D1 (a G1 marker) and B1 (a G2/M marker) following treatment with GEM or SapC-DOPS was measured by western blot and the cyclin B1 to cyclin D1 ratio was quantified in cfPac-1.\nWestern blot analyses. Following treatment with GEM or SapC-DOPS, cells were washed with PBS and lysed in RIPA Buffer (Sigma) supplemented with protease inhibitor cocktail tablets (Roche). A total of 30 μg of protein extract was separated using 4-15% Mini-PROTEAN Precast Gels (Bio-Rad) and transferred to Hybond-ECL Nitrocellulose membrane (Biosciences). Membranes were blocked for 1 hr. in 5% nonfat dry milk in 0.1% Tween-20 in PBS at 4° C. Blocked membranes were incubated with primary antibodies overnight at 4° C. Subsequently, membranes were washed 3 times for 10 min. with 0.1% Tween-20 in PBS. Secondary antibodies were incubated for 1 hr. at room temperature. Membranes were washed as above and incubated with SuperSignal West Dura Extended Duration Substrate (Thermo Scientific) for 5 min. Detection was performed using the ChemiDoc Touch Imaging System (Bio-Rad). Image Lab 5.2.1 software (Bio-Rad) was used to quantify the proteins on the western blots."}, "[2]": {"test_system": "MiaPaCa-2 subcutaneous tumors", "assay": "Surface PS of tumor cells isolated from subcutaneous xenografts after GEM in vivo", "set-up": "species or system mouse", "protocol": "(§1) Cells were isolated 48 hr. following treatment with 40 mg/kg GEM, stained with annexin V-FITC and analyzed by flow cytometry. Only those cells that were negative for PI staining were assessed for annexin V labeling. Less than 10% of the cells (in vitro or in vivo) were killed by the GEM treatment.\nFor assessment of surface PS, when the subcutaneous tumors were 100-300 mm^3, some mice were treated with 40 mg/kg GEM and the tumors were removed 48 hr. later. The tumors were minced then incubated with 5 ml of collagenase type IV (200 U/ml) at 37° C. for 2 hrs. The cells were passed through a 40 μm filter, washed with PBS then stained with annexin V-FITC and analyzed by flow cytometry."}, "cfPac-1 cells": {"test_system": "cfPac-1 cells", "assay": "MTT viability of cells sorted into low and high surface PS populations after GEM", "type": "cell-based, human", "protocol": "Cell Sorting. Cells were grown to 60-80% confluency then stained with annexin V-FITC as above but without PI. The cells were then passed through a cell sorter (BD Aria III) and cells with low and high surface PS were collected (˜15% of the cells at each end of the peak; see FIG. 1). The cells were placed in 96 well plates and immediately treated with 0, 25 or 50 nM of GEM. The MTT assay (Roche) was conducted 72 hr later to determine the effect of the GEM on cell viability."}, "[3]": {"test_system": "cfPac-1, MiaPaCa-2 and p53.2.2.1 cells", "assay": "Cell cycle analysis by Hoechst staining after GEM or SapC-DOPS", "type": "cell-based, human, mouse", "details": "GEM 1-2 μM 24 hrs; SapC-DOPS 20-30 μM 72 hrs", "method": "For cell cycle analyses of cells treated with GEM or SapC-DOPS, MiaPaCa-2, cfPac-1 and p53.2.2.1 cells were cultured to 70% confluency. Cells (2.5×10^5) were plated overnight in 60 mm cell culture plates. MiaPaCa-2, cfPac-1 and p53.2.2.1 were treated with 1 μM, 2 μM, and 1 μM GEM respectively for 24 hrs. or with 30 μM, 25 μM and 20 μM SapC-DOPS respectively for 72 hrs. (MiaPaCa-2 and p53.2.2.1) or 24 hrs (cfPac-1). Following treatment, 10^6 cells were stained with Hoechst 33342 as described above."}, "[4]": {"test_system": "PDAC cells (MiaPaCa-2, cfPac-1)", "assay": "Surface PS by annexin V-FITC flow cytometry after GEM exposure in vitro", "type": "cell-based, human", "protocol": "as §1\nPhosphatidylserine levels measurements. Surface membrane PS levels were measured using annexin V-FITC (Invitrogen, Carlsbad, CA) as previously described (Chu et al. PLoS One 2013; 8(10):e75507, Davis et al. Oncotarget 2019; 10:856-868). In brief, cells were harvested using trypsin-EDTA (Thermo Fisher Scientific); the trypsin was inactivated with complete media and the cells were washed with PBS and resuspended at 1,000,000 cells/ml in annexin staining buffer. Aliquots of cells (0.1 ml/tube) were incubated with 10 μl of annexin V-FITC for 15 minutes at room temperature in the dark. Then 400 μl of annexin staining buffer was added to each tube. Samples were kept on ice and analyzed by flow cytometry within 1 hour after addition of 2 μl of 50 μg/ml propidium iodide (PI; to exclude dead cells). […] To this end, cells were incubated for 24 or 48 hr. with 10 nM-1 μM GEM and then stained with annexin V-FITC and PI and analyzed by flow cytometry."}, "MiaPaCa-2 cells": {"test_system": "MiaPaCa-2 cells", "assay": "Cell cycle stage targeting in hydroxyurea-synchronized cells", "type": "cell-based, human", "details": "G1 synchronized MiaPaCa-2; 1 μM GEM 24 hrs or 30 μM SapC-DOPS 48 hrs", "method": "MiaPaCa-2 were treated with 4 mM hydroxyurea (HU) for synchronization. […] Following drug treatment, percent of cells in G1 and G2/M phase was measured using Hoechst staining*p<0.05**p<0.001, #p<0.0001.\nMiaPaCa-2 cells were grown to 70% confluency. Cells were treated with hydroxyurea (HU) in complete medium to a final concentration of 4 mM for 24 hrs."}, "[5]": {"test_system": "human pancreatic duct epithelial cells (HPDE)", "assay": "Surface PS after GEM exposure in normal pancreatic cells", "type": "cell-based", "details": "response to gemcitabine", "protocol": "Phosphatidylserine levels measurements. Surface membrane PS levels were measured using annexin V-FITC (Invitrogen, Carlsbad, CA) as previously described (Chu et al. PLoS One 2013; 8(10):e75507, Davis et al. Oncotarget 2019; 10:856-868). In brief, cells were harvested using trypsin-EDTA (Thermo Fisher Scientific); the trypsin was inactivated with complete media and the cells were washed with PBS and resuspended at 1,000,000 cells/ml in annexin staining buffer. Aliquots of cells (0.1 ml/tube) were incubated with 10 μl of annexin V-FITC for 15 minutes at room temperature in the dark. Then 400 μl of annexin staining buffer was added to each tube. Samples were kept on ice and analyzed by flow cytometry within 1 hour after addition of 2 μl of 50 μg/ml propidium iodide (PI; to exclude dead cells). The effects of GEM exposure on surface PS levels were studied in human PDAC cell lines (cfPac-1 and Mia-PaCa-2), a mouse PDAC cell line (p53 2.1.1) (Collisson et al. Cancer Discov 2012; 2(8):685-93) and immortalized, non-tumorigenic human pancreatic duct epithelial cells (HPDE). To this end, cells were incubated for 24 or 48 hr. with 10 nM-1 μM GEM and then stained with annexin V-FITC and PI and analyzed by flow cytometry."}, "[6]": {"assay": "Mouse body weight during treatment", "type": "in vivo", "details": "tumor-bearing mice, compared to control or to GEM alone", "description": "The mice treated in FIG. 6 were weighed on the indicated days. […] However, SapC-DOPS prevented the weight loss due to GEM alone. *p<0.01 between saline and GEM alone. #p<0.01 between GEM and SapC-DOPS or GEM and the combination of GEM and SapC-DOPS."}}, "data": [{"compound": "Nc1ccn([C@@H]2O[C@H](CO)[C@@H](O)C2(F)F)c(=O)n1", "note": "[GEM, 2′, 2′-difluoro 2′deoxycytidine]", "values": [{"measurement": "cyclin B1/cyclin D1 protein ratio", "setting": "[1]", "result": "an increase in the cyclin B1/cyclin D1 ratio"}, {"measurement": "surface PS in tumor cells isolated from subcutaneous xenografts", "setting": "[2]; 48 hrs after 40 mg/kg GEM in vivo", "result": "induced an increase in surface PS in tumor cells"}, {"measurement": "cells killed by the GEM treatment", "setting": "[2]; in vitro or in vivo, FIG. 4 treatments", "result": "Less than 10%"}, {"measurement": "cell death in low vs high surface PS populations", "setting": "cfPac-1 cells; sorted cells, 50 nM GEM", "result": "cell death was more profound in the low surface PS population compared to the high surface PS population"}, {"measurement": "cell killing in low vs high surface PS populations", "setting": "cfPac-1 cells; sorted cfPac-1 cells, GEM 72 hr, MTT", "result": "killed more cells from the low surface PS population compared to the high surface PS population"}, {"measurement": "percentage of cells in G1 phase", "setting": "[3]", "result": "significant decrease in the percentage of cells in the G1 phase"}, {"measurement": "percentage of cells in G2/M phase", "setting": "[3]", "result": "increased percentage in the G2/M phase"}, {"measurement": "surface PS in viable (PI-negative) PDAC cells", "setting": "[4]; sub-toxic GEM, 48 hr, annexin V-FITC", "result": "increased surface PS in viable PDAC cells"}, {"measurement": "apoptosis at sub-toxic concentrations", "setting": "[4]; sub-toxic concentrations of GEM, PDAC cells", "result": "< 10", "unit": "%"}, {"measurement": "targeting of cells when G1 synchronized cells are treated", "setting": "MiaPaCa-2 cells", "result": "increased targeting of G1 cells compared to SapC-DOPS"}, {"measurement": "PS surface expression in normal pancreatic cells", "setting": "[5]", "result": "no increased PS surface expression"}, {"measurement": "mouse weight", "setting": "[6]", "result": "significant decrease in mouse weight"}]}]}
